For orientation: EC50 means the midpoint of the concentration-response curve.

Bounds are passed on as bounds.

The first experiment concerns ER-alpha MCF7. The experiment is described as follows: ER-alpha MCF7 HCS EC50; stated as measured by in vitro cell proliferation assays of Examples 902 and 903. It counts as cell-based. The conditions noted are these: Homo sapiens, MCF7, MCF7 cells; Table 1. The source says: The CellTiter-Glo® Luminescent Cell Viability Assay is a homogeneous method to determine the number of viable cells in culture based on quantitation of the ATP present, which signals the presence of metabolically active cells. The CellTiter-Glo® Assay is designed for use with multiwell plate formats, making it ideal for automated high-throughput screening (HTS), cell proliferation and cytotoxicity assays. The homogeneous assay procedure involves adding a single reagent (CellTiter-Glo® Reagent) directly to cells cultured in serum-supplemented medium. Cell washing, removal of medium or multiple pipetting steps are not required. The Cell Titer-Glo® Luminescent Cell Viability Assay, including reagents and protocol are commercially available (Promega Corp., Madison, WI, Technical Bulletin TB288).
The assay assesses the ability of compounds to enter cells and inhibit cell proliferation. The assay principle is based on the determination of the number of viable cells present by quantitating the ATP present in a homogenous assay where addition of the Cell Titer-Glo® reagent results in cell lysis and generation of a luminescent signal through the luciferase reaction. The luminescent signal is proportional to the amount of ATP present.
Cell Culture Medium: RPMI or DMEM high glucose, 10% Fetal Bovine Serum, 2 mM L-Glutamine, P/S. Incubate O/N (overnight) at 37° C., 5% CO2.
Day 2—Add Drug to Cells, Compound Dilution, DMSO Plates (serial 1:2 for 9 points). Add 20 μl of compound at 10 mM in the 2nd column of 96 well plate. […] Add 147 μl of Media into all wells. Transfer 3 μl of DMSO+ compound from each well in the DMSO Plate to each corresponding well on Media Plate using Rapidplate® (Caliper, a Perkin-Elmer Co.). For 2 drug combination studies, transfer one drug 1.5 μl of DMSO+ compound from each well in the DMSO Plate to each corresponding well on Media Plate using Rapidplate. Then, transfer another drug 1.5 μl to the medium plate.
Drug Addition to Cells, Cell Plate (1:10 dilution): Add 6 μl of media+ compound directly to cells (54 μl of media on the cells already). Incubate 3 days at 37° C., 5% CO2 in an incubator that will not be opened often.
Day 5—Develop Plates, Thaw Cell Titer Glo Buffer at room temperature: Remove Cell Plates from 37° C. and equilibrate to room temperature for about 30 minutes. Add Cell Titer-Glo® Buffer to Cell Titer-Glo® Substrate (bottle to bottle). Add 30 μl Cell Titer-Glo® Reagent (Promega cat. #G7572) to each well of cells. Place on plate shaker for about 30 minutes. Read luminescence on Analyst HT Plate Reader (half second per well).
Cell viability assays and combination assays: Cells were seeded at 1000-2000 cells/well in 384-well plates for 16 h. On day two, nine serial 1:2 compound dilutions were made in DMSO in a 96 well plate. The compounds were further diluted into growth media using a Rapidplate® robot (Zymark Corp., Hopkinton, MA). The diluted compounds were then added to quadruplicate wells in 384-well cell plates and incubated at 37° C. and 5% CO2. After 4 days, relative numbers of viable cells were measured by luminescence using Cell Titer-Glo® (Promega) according to the manufacturer's instructions and read on a Wallac Multilabel Reader® (PerkinElmer, Foster City). EC50 values were calculated using Prism® 4.0 software (GraphPad, San Diego).
5 ul of each individual compound concentration and each control compound was transferred to the cell plate. Fulvestrant was added to control wells at a final concentration of 100 nM). DMSO was added to negative control wells (0.2% v/v).
Consider `C[C@@H]1Cc2c([nH]c3ccccc23)[C@@H](c2c(F)cc(OCCN3CC(CF)C3)cc2F)N1CC1(C)COC1` [Example 114, (1R,3R)-1-(2,6-difluoro-4-(2-(3-(fluoromethyl)azetidin-1-yl)ethoxy)phenyl)-3-methyl-2-((3-methyloxetan-3-yl)methyl)-2,3,4,9-tetrahydro-1H-pyrido[3,4-b]indole], for which the EC50 was 0.715 nM.

Still in this experiment, the particulars now being: Homo sapiens, MCF7, MCF7 cells; Table 2.
For the molecule `C[C@@H]1Cc2c([nH]c3ccccc23)[C@@H](c2c(F)cc(OCCN3CC(CF)C3)cc2F)N1C(=O)C1CNC1` [Example 182, azetidin-3-yl-[(1R,3R)-1-[2,6-difluoro-4-[2-[3-(fluoromethyl)azetidin-1-yl]ethoxy]phenyl]-3-methyl-1,3,4,9-tetrahydropyrido[3,4-b]indol-2-yl] methanone], the EC50 was over 100 nM.

For `CC1(C)Cc2c([nH]c3ccccc23)[C@@H](c2c(F)cc(NC3CN(CCCF)C3)cc2F)N1CC(F)F` [Example 405, (R)-N-(4-(2-(2,2-difluoroethyl)-3,3-dimethyl-2,3,4,9-tetrahydro-1H-pyrido[3,4-b]indol-1-yl)-3,5-difluorophenyl)-1-(3-fluoropropyl)azetidin-3-amine], the EC50 was 0.23 nM.

Consider `C[C@@H]1Cc2c([nH]c3ccccc23)[C@@H](c2c(F)cc(OC3CN(CC4CCCCC4)C3)cc2F)N1CC(C)(C)F` [Example 209, (1R,3R)-1-[4-[1-(cyclohexylmethyl)azetidin-3-yl]oxy-2,6-difluoro-phenyl]-2-(2-fluoro-2-methyl-propyl)-3-methyl-1,3,4,9-tetrahydropyrido[3,4-b]indole], for which the EC50 was 8 nM.

With `C[C@@H]1Cc2c([nH]c3ccccc23)[C@@H](c2ccc(OC3CN(CCCF)C3)cc2)N1CC(C)(C)F` [Example 201, (1R,3R)-2-(2-fluoro-2-methyl-propyl)-1-[4-[1-(3-fluoropropyl)azetidin-3-yl]oxyphenyl]-3-methyl-1,3,4,9-tetrahydropyrido[3,4-b]indole], the EC50 was found to be 0.315 nM.

As to `C[C@@H]1Cc2c([nH]c3ccccc23)[C@@H](c2c(F)cc(OC3CN(C[C@@H]4C[C@H]4F)C3)cc2F)N1CC(C)(C)F` [Example 269, (1R,3R)-1-[2,6-difluoro-4-[1-[[(1S,2R)-2-fluorocyclopropyl]methyl]azetidin-3-yl]oxy-phenyl]-2-(2-fluoro-2-methyl-propyl)-3-methyl-1,3,4,9-tetrahydropyrido[3,4-b]indole], the EC50 turned out to be 1 nM.

For `C=CS(=O)(=O)N1[C@H](c2ccc(OCCN3CC(CF)C3)cc2)c2[nH]c3ccccc3c2C[C@H]1C` [Example 312, (1R,3R)-1-[4-[2-[3-(fluoromethyl)azetidin-1-yl]ethoxy]phenyl]-3-methyl-2-vinylsulfonyl-1,3,4,9-tetrahydropyrido[3,4-b]indole], the EC50 was 2 nM.

With `C[C@@H]1Cc2c([nH]c3ccccc23)[C@@H](c2ccc([C@@H](O)C3CN(CCCF)C3)cc2)N1CC(C)(C)F` [Example 380, (S)-(4-((1R,3R)-2-(2-fluoro-2-methylpropyl)-3-methyl-2,3,4,9-tetrahydro-1H-pyrido[3,4-b]indol-1-yl)phenyl)(1-(3-fluoropropyl)azetidin-3-yl)methanol], the EC50 is 0.188 nM.

As for `C[C@@H]1Cc2c([nH]c3ccccc23)[C@@H](c2ccc(OC3CN(CCCF)C3)c(F)c2)N1CC(C)(C)F` [Example 267, (1R,3R)-1-[3-fluoro-4-[1-(3-fluoropropyl)azetidin-3-yl]oxy-phenyl]-2-(2-fluoro-2-methyl-propyl)-3-methyl-1,3,4,9-tetrahydropyrido[3,4-b]indole], the EC50 was determined as 0.744 nM.

For the molecule `C[C@@H]1Cc2c([nH]c3ccccc23)[C@@H](c2c(F)cc(OCCN3CC(CF)C3)cc2F)N1CC1CCCC1` [Example 216, (1R,3R)-2-(cyclopentylmethyl)-1-[2,6-difluoro-4-[2-[3-(fluoromethyl)azetidin-1-yl]ethoxy]phenyl]-3-methyl-1,3,4,9-tetrahydropyrido[3,4-b]indole], the EC50 amounted to 1 nM.

For the molecule `C[C@@H]1CCN([C@@H](C)COc2cc(F)c([C@@H]3c4[nH]c5ccccc5c4C[C@@H](C)N3CC(C)(C)F)c(F)c2)C1` [Example 184], the concentration giving a half-maximal response (EC50) amounted to 0.494 nM.

Regarding `C[C@@H]1Cc2c([nH]c3ccc(F)cc23)[C@@H](c2c(F)cc(NC3CN(CCCF)C3)cc2F)N1CC(F)(F)F` [Example 372, N-(3,5-difluoro-4-((1R,3R)-6-fluoro-3-methyl-2-(2,2,2-trifluoroethyl)-2,3,4,9-tetrahydro-1H-pyrido[3,4-b]indol-1-yl)phenyl)-1-(3-fluoropropyl)azetidin-3-amine], the EC50 is 0.198 nM.

For `C[C@@H]1Cc2c([nH]c3ccccc23)[C@@H](c2c(F)cc(OCCN3CC(CF)C3)cc2F)N1C[C@H](F)CO` [Example 394, (S)-3-((1R,3R)-1-(2,6-difluoro-4-(2-(3-(fluoromethyl)azetidin-1-yl)ethoxy)phenyl)-3-methyl-3,4-dihydro-1H-pyrido[3,4-b]indol-2(9H)-yl)-2-fluoropropan-1-ol], the EC50 was determined as 0.23 nM.

Regarding `C[C@@H]1Cc2c([nH]c3ccccc23)[C@@H](c2c(F)cc(OC3CN(CCCF)C3)cc2F)N1C[C@@H](CO)C(F)(F)F` [Example 376, (S)-2-(((1R,3R)-1-(2,6-difluoro-4-((1-(3-fluoropropyl)azetidin-3-yl)oxy)phenyl)-3-methyl-1,3,4,9-tetrahydro-2H-pyrido[3,4-b]indol-2-yl)methyl)-3,3,3-trifluoropropan-1-ol], the EC50 stood at 1 nM.

Regarding `C[C@@H]1Cc2c([nH]c3ccccc23)[C@@H](c2ccc(OCCN3CC(CF)C3)cc2)N1S(C)(=O)=O` [Example 180, (1R,3R)-1-(4-(2-(3-(fluoromethyl)azetidin-1-yl)ethoxy)phenyl)-3-methyl-2-(methylsulfonyl)-2,3,4,9-tetrahydro-1H-pyrido[3,4-b]indole], the EC50 amounted to 0.222 nM.

For the molecule `C[C@@H]1Cc2c([nH]c3ccc(F)cc23)[C@@H](c2c(F)cc(NC3CN(CCCF)C3)cc2F)N1CC(F)F` [Example 389, N-(4-((1R,3R)-2-(2,2-difluoroethyl)-6-fluoro-3-methyl-2,3,4,9-tetrahydro-1H-pyrido[3,4-b]indol-1-yl)-3,5-difluorophenyl)-1-(3-fluoropropyl)azetidin-3-amine], the EC50 was 0.056 nM.

`C[C@H](CN1[C@H](c2c(F)cc(OCCN3CC(CF)C3)cc2F)c2[nH]c3ccccc3c2C[C@H]1C)c1ccccc1` [Example 199, (1R,3R)-1-(2,6-difluoro-4-(2-(3-(fluoromethyl)azetidin-1-yl)ethoxy)phenyl)-3-methyl-2-((S)-2-phenylpropyl)-2,3,4,9-tetrahydro-1H-pyrido[3,4-b]indole]: the EC50 is 2.32 nM.

As for `C[C@@H]1Cc2c([nH]c3cccc(F)c23)[C@@H](c2c(F)cc(OC3CN(CCCF)C3)cc2F)N1CC(C)(C)F` [Example 249, (1R,3R)-1-(2,6-difluoro-4-((1-(3-fluoropropyl)azetidin-3-yl)oxy)phenyl)-5-fluoro-2-(2-fluoro-2-methylpropyl)-3-methyl-2,3,4,9-tetrahydro-1H-pyrido[3,4-b]indole], the concentration for a half-maximal effect (EC50) stood at 0.511 nM.

Turning to `C[C@@H]1Cc2c([nH]c3ccccc23)[C@@H](c2ccc(NC3CN(CCCF)C3)cc2F)N1C[C@](C)(F)CO` [Example 291, (S)-2-fluoro-3-((1R,3R)-1-(2-fluoro-4-((1-(3-fluoropropyl)azetidin-3-yl)amino)phenyl)-3-methyl-1,3,4,9-tetrahydro-2H-pyrido[3,4-b]indol-2-yl)-2-methylpropan-1-ol], the EC50 stood at 0.13 nM.

Take `C[C@@H]1Cc2c([nH]c3ccccc23)[C@H](c2c(F)cc(OCCN3CC(CF)C3)cc2F)N1CC(C)(C)C(=O)O` [Example 378, 3-[(1S,3R)-1-[2,6-difluoro-4-[2-[3-(fluoromethyl)azetidin-1-yl]ethoxy]phenyl]-3-methyl-1,3,4,9-tetrahydropyrido[3,4-b]indol-2-yl]-2,2-dimethyl-propanoic acid]: the EC50 is 28 nM.

The values are drawn from patent publication US20250114338A1, “TETRAHYDRO-PYRIDO[3,4-b]INDOLE ESTROGEN RECEPTOR MODULATORS AND USES THEREOF” (Genentech, Inc., priority 2014, published 2025).
